Series [1] in a line: In vivo pharmacokinetic experiment, plasma LC-MS after tail vein injection. The protocol: All the procedures and experiments involving animals were carried out using a protocol approved by the Health Sciences Laboratory Animal Services (HSLAS), University of Alberta. The protocol was approved as per the Canadian Council on Animal Care (CCAC) guidelines. Approved protocol # AUP00002467. All mice (Strain: C57BL/6J) were maintained in pathogen-free conditions at the University of Alberta breeding facility. Housed on ventilated caging (Tecniplast); Temperature: 21 +/− 2 degrees Celsius; Humidity: 30–70% rH; Light Cycle: 12 L:12D. […] Peptide mixtures of 100 µM were prepared in PBS. Mice were administered with 200 µL of the peptide mixture solution with tail veil injection. A series of 6 blood samples were collected at time points from 2 min up to 240 min (Fig. 6B: 2 min, 60 min; Fig. 6C–E: 2 min, 60 min, 180 min; Supplementary Fig. 32: 2 min, 5 min, 30 min, 60 min, 120 min, 240 min). Samples were collected in tubes that contained sodium citrate as an anticoagulant and then centrifuged at 5 min at 2000 × g to collect the blood plasma. 10 µL of plasma portion were transferred into a tube containing 40 µL of 8:2 acetonitrile/water to precipitate proteins. The samples were centrifuged at 17,000 × g for 10 min at 4 °C. Supernatants were then transferred to new tubes and subjected to analysis by LC-MS. […]
assays. The fluorescent-labeled peptides w ere dissolved to 10 m M in D M SO and diluted to 20 µM in DM SO for use. Each well contained 19 µL of HSA in PBSwith the range of final […]
1 µL of 20 µM of fluorescentlly labeled peptide was added to the wells to a final concentration of 1 µM . Each measuring point was made in duplicate. Before measuring, the plate was centrifuged 500×g for 5 min at RT, incubated for 10 m in, and shaken for 5 m in the dark. The m easurem ent w as perform ed in Cytation5 Cell Imaging Multi-Mode Reader from BioTek. The data were analyzed and processed in […]
26. […]
prepared with the identical buffer as the peptides to a final concentration of 40 µM . […] The data were evaluated using the MicroCalTM OriginTM Version 5.0. […]

Series [2] deals with T1, HSA (Homo sapiens, UniProt P02768). Details: purchased Sigma-Aldrich A4327-1G. The conditions noted are these: cited from earlier work.
Series [3] concerns the target T1, HSA. Particulars: 19F NMR competition.
Series [4] has as its target Serum albumin (Homo sapiens) (UniProt P02768). The conditions noted are these: cited from earlier work.
The nature of series [5]: Reactivity of macrocycles with thiol nucleophiles. The format is physicochemical. The conditions noted are these: several hours, basic pH. The source says: 6-10 Å and the PM F of the pocket 1 starts to deviate from the others, we performed hydrogen bond interaction searches with 3.5 Å cut off distance between a donor and an acceptor at intermediate regime from umbrella sampling simulations. These findings […]
of the peptide to the pocket 1 binding site of albumin. This was supported by the fact that […]
simulation time (Supplementary Fig. 27). O verall, these findings provide im portant insights into the m echanism of binding betw een the peptide and album in, w hich could inform the design of future albumin-binding peptides with improved affinity and specificity. The concurrence of the docking results and the experimental binding data provides strong evidence that our simulations accurately predicted the binding for 14c.
Supplementary Fig. 7. […] The OFS-SWCRC […]
peptide was added with one equivalent of GSH in 60% acetonitrile in 50 mM Tris-HCl at pH 8.5.
The reaction was monitored by LC–MS.
Supplementary Fig. 8. Stability of the PFS stapled peptides (A ) Results of the PFS-SW CRC mixed with 2-mercaptoethanol and analyzed by LC–MS after 1 hour and 3 weeks. The PFS-SW CRC macrocycle was combined with 1 equivalent of 2-mercaptoethanol in 60% acetonitrile and 50 mM Tris-HCl at pH 8.5. The mixture was monitored by LC–MS. […]
spectrum of 1 mg of PFS- […] mixed with 1 mg of HSA over 19 days in PBS. The mixture was monitored by 19F NMR in PBS, 10% D2O

Setting [6] is: C57BL/6J, mouse, plasma, iv, 200 uL of 100 uM peptide mixture.

Like-named read-outs stand apart in the source and are kept apart here. Positions of bridges follow the written chain, without caps; N, C: chain ends. Residues, ends and D or L forms follow the SMILES beside them.

For `CC[C@H](C)[C@H](NC(=O)[C@H](CC(C)C)NC(=O)[C@H](CCCNC(=N)N)NC(C)=O)C(=O)N[C@@H](CCC(=O)O)C(=O)N[C@@H](CC(=O)O)C(=O)N[C@H](C(=O)N[C@H]1CSSC[C@@H](C(=O)N[C@@H](CC(C)C)C(=O)N[C@@H](Cc2c[nH]c3ccccc23)C(=O)N[C@@H](CCC(=O)O)C(=O)N[C@@H](CC(=O)O)C(=O)N[C@@H](CC(=O)O)C(N)=O)NC(=O)CNC(=O)[C@H](Cc2c[nH]c3ccccc23)NC(=O)[C@H](CCCNC(=N)N)NC(=O)[C@@H]2CCCN2C(=O)[C@H](CC(C)C)NC1=O)[C@@H](C)CC` [SA-21] (Ac-RLIEDICLPRWGCLWEDD-NH2; disulfide 7-13), the level at 2 min in series [1] (setting [6]) came to 40000 ng/mL. Moreover, the level at 1 h in series [1] (setting [6]) was determined as 30000 ng/mL. Also, the “plasma concentration in 3 h study, in words” value in series [1] (mice, tail vein, 2, 60, 180 min) is on record as “indistinguishable”. Moreover, the Kd at HSA [2] (Discussion, reference not given, read-out: affinity of benchmark) is 600 nM; on HSA [2] (read-out: binding affinity to HSA), approximately 500 nM.

With `NC(=O)N1c2ccccc2C=Cc2ccccc21` [carbamazepine], the “influence on binding of 14c to HSA” value on HSA [3] is on record as “none of these drugs influenced the binding of 14c”.

Take FITC-EYEYKpalmESE-NH2: the Kd in series [4] is 39 nM.

In the case of OFS-SWCRC, the “reactivity with glutathione (GSH)” value in series [5] is recorded as “reacted with GSH over 3 hours”.
